Reference: the NIST ThermoML archive (doi:10.1016/j.jct.2017.10.002)
Several values for one entry are separate records, joined by “and”; a condition that tells them apart may be missing. Equal values may be shown once.

Assay: molar heat capacity at constant pressure
Settings: 101.33 kPa, relaxation calorimetry

CCc1ncc[n-]1.CCc1ncc[n-]1.[Zn+2] [zinc(II) 2-ethylimidazolide]
molar heat capacity at constant pressure
Settings | Crystal | Glass
20.19 K | 17.81 J/K/mol | –
20.5 K | 16.98 J/K/mol and 13.71 J/K/mol | –
20.51 K | – | 17.11 J/K/mol
22.14 K | 20.77 J/K/mol | –
22.42 K | 16.31 J/K/mol | –
22.43 K | 19.56 J/K/mol | 19.76 J/K/mol
24.21 K | 23.64 J/K/mol | –
24.49 K | 22.58 J/K/mol and 19.45 J/K/mol | –
24.5 K | – | 22.96 J/K/mol
25 K | 24.79 J/K/mol and 20.1 J/K/mol and 23.3 J/K/mol | 23.65 J/K/mol
26.43 K | 26.91 J/K/mol | –
26.75 K | 22.61 J/K/mol | –
26.76 K | 25.8 J/K/mol | –
26.77 K | – | 26.23 J/K/mol
28.91 K | 30.23 J/K/mol | –
29.23 K | 26.38 J/K/mol | –
29.24 K | 29.64 J/K/mol | –
29.25 K | – | 30.22 J/K/mol
30 K | 31.85 J/K/mol and 27.7 J/K/mol and 30.79 J/K/mol | 31.35 J/K/mol
31.62 K | 34.05 J/K/mol | –
31.94 K | 30.76 J/K/mol | 34.68 J/K/mol
31.95 K | 33.91 J/K/mol | –
34.58 K | 38.37 J/K/mol | –
34.9 K | 38.58 J/K/mol and 35.55 J/K/mol | 39.27 J/K/mol
35 K | 38.9 J/K/mol and 35.64 J/K/mol and 38.68 J/K/mol | 39.25 J/K/mol
37.81 K | 43 J/K/mol | –
38.12 K | 40.86 J/K/mol | –
38.13 K | 43.67 J/K/mol | 43.79 J/K/mol
40 K | 45.99 J/K/mol and 43.91 J/K/mol and 46.78 J/K/mol | 46.98 J/K/mol
41.34 K | 47.77 J/K/mol | –
41.65 K | 46.75 J/K/mol | –
41.66 K | 49.38 J/K/mol | 49.23 J/K/mol
45 K | 53.17 J/K/mol and 52.4 J/K/mol and 54.79 J/K/mol | 54.36 J/K/mol
45.2 K | 53.79 J/K/mol | –
45.5 K | 53.14 J/K/mol | –
45.51 K | 55.55 J/K/mol | –
45.52 K | – | 55.25 J/K/mol
49.41 K | 59.46 J/K/mol | –
49.71 K | 60.01 J/K/mol | –
49.72 K | 62.24 J/K/mol | –
49.73 K | – | 61.57 J/K/mol
50 K | 60.35 J/K/mol and 60.38 J/K/mol and 62.49 J/K/mol | 61.68 J/K/mol
54.02 K | 65.55 J/K/mol | –
54.31 K | 67.15 J/K/mol | –
54.32 K | – | 68.04 J/K/mol
54.33 K | 68.86 J/K/mol | –
59.06 K | 72.12 J/K/mol | –
59.34 K | 74.94 J/K/mol | –
59.35 K | 76.53 J/K/mol | 75.28 J/K/mol
60 K | 73.51 J/K/mol and 75.98 J/K/mol and 77.48 J/K/mol | 76.22 J/K/mol
64.56 K | 79.28 J/K/mol | –
64.85 K | 83.06 J/K/mol | 82.76 J/K/mol
64.86 K | 84.44 J/K/mol | –
70 K | 86.38 J/K/mol and 90.67 J/K/mol and 92.04 J/K/mol | 89.94 J/K/mol
70.56 K | 86.79 J/K/mol | –
70.85 K | 91.72 J/K/mol | –
70.86 K | 93.1 J/K/mol | 90.79 J/K/mol
77.13 K | 95.12 J/K/mol | –
77.42 K | 100.73 J/K/mol | 99.43 J/K/mol
77.43 K | 102.26 J/K/mol | –
80 K | 98.35 J/K/mol and 103.93 J/K/mol and 105.47 J/K/mol | 102.42 J/K/mol
84.27 K | 104 J/K/mol | –
84.6 K | 109.85 J/K/mol | –
84.61 K | 111.93 J/K/mol | 108.29 J/K/mol
90 K | 109.29 J/K/mol and 115.76 J/K/mol and 117.61 J/K/mol | 113.66 J/K/mol
92.13 K | 112.13 J/K/mol | –
92.46 K | 118.78 J/K/mol | 116.45 J/K/mol
92.47 K | 120.62 J/K/mol | –
100 K | 119.26 J/K/mol and 126.37 J/K/mol and 128.56 J/K/mol | 123.8 J/K/mol
100.71 K | 118.91 J/K/mol | –
101.03 K | 127.27 J/K/mol | –
101.04 K | 129.19 J/K/mol | 124.6 J/K/mol
110 K | 128.39 J/K/mol and 136.02 J/K/mol and 138.51 J/K/mol | 133.08 J/K/mol
110.81 K | 128.62 J/K/mol | –
111.15 K | 136.95 J/K/mol | 133.87 J/K/mol
111.16 K | 139.25 J/K/mol | –
120 K | 136.82 J/K/mol and 144.91 J/K/mol and 147.68 J/K/mol | 141.69 J/K/mol
120.85 K | 137.96 J/K/mol | –
121.21 K | 146.05 J/K/mol | 142.99 J/K/mol
121.23 K | 149.18 J/K/mol | –
130 K | 144.69 J/K/mol and 153.25 J/K/mol and 156.24 J/K/mol | 149.79 J/K/mol
130.99 K | 145.58 J/K/mol | –
131.26 K | – | 150.5 J/K/mol
131.27 K | 153.88 J/K/mol | –
131.28 K | 157.12 J/K/mol | –
140 K | 152.15 J/K/mol and 161.18 J/K/mol and 164.35 J/K/mol | 157.54 J/K/mol
141.06 K | 152.68 J/K/mol | –
141.38 K | – | 158.36 J/K/mol
141.4 K | 162.12 J/K/mol | –
141.42 K | 164.9 J/K/mol | –
150 K | 159.28 J/K/mol and 168.81 J/K/mol and 172.14 J/K/mol | 165.02 J/K/mol
151.12 K | 159.89 J/K/mol | –
151.43 K | – | 166.3 J/K/mol
151.46 K | 170.21 J/K/mol | –
151.47 K | 173.16 J/K/mol | –
160 K | 166.18 J/K/mol and 176.23 J/K/mol and 179.71 J/K/mol | 172.32 J/K/mol
161.25 K | 166.65 J/K/mol | –
161.56 K | – | 173.36 J/K/mol
161.59 K | 177.25 J/K/mol | –
161.61 K | 180.61 J/K/mol | –
170 K | 172.92 J/K/mol and 183.53 J/K/mol and 187.14 J/K/mol | 179.51 J/K/mol
171.35 K | 173.33 J/K/mol | –
171.6 K | – | 180.21 J/K/mol
171.65 K | 184.06 J/K/mol | –
171.67 K | 188.03 J/K/mol | –
180 K | 179.56 J/K/mol and 190.75 J/K/mol and 194.49 J/K/mol | 186.63 J/K/mol
181.43 K | 180.52 J/K/mol | –
181.69 K | – | 187.69 J/K/mol
181.74 K | 192.24 J/K/mol | –
181.77 K | 196.44 J/K/mol | –
190 K | 186.14 J/K/mol and 197.94 J/K/mol and 201.82 J/K/mol | 193.72 J/K/mol
191.5 K | 187.51 J/K/mol | –
191.77 K | – | 195.38 J/K/mol
191.83 K | 199.47 J/K/mol | –
191.86 K | 203.36 J/K/mol | –
200 K | 192.7 J/K/mol and 205.14 J/K/mol and 209.16 J/K/mol | 200.81 J/K/mol
201.6 K | 194.57 J/K/mol | –
201.91 K | – | 202.56 J/K/mol
201.98 K | 207.07 J/K/mol | –
202.01 K | 211.73 J/K/mol | –
210 K | 199.27 J/K/mol and 212.36 J/K/mol and 216.56 J/K/mol | 207.92 J/K/mol
211.69 K | 200.92 J/K/mol | –
211.98 K | – | 209.72 J/K/mol
212.06 K | 214.46 J/K/mol | –
212.09 K | 218.97 J/K/mol | –
220 K | 205.88 J/K/mol and 219.65 J/K/mol and 224.03 J/K/mol | 215.06 J/K/mol
221.78 K | 207.56 J/K/mol | –
221.99 K | – | 216.74 J/K/mol
222.09 K | 221.43 J/K/mol | –
222.12 K | 225.68 J/K/mol | –
230 K | 212.55 J/K/mol and 227.01 J/K/mol and 231.6 J/K/mol | 222.25 J/K/mol
231.87 K | 213.47 J/K/mol | –
232.05 K | – | 223.82 J/K/mol
232.17 K | 228.3 J/K/mol | –
232.21 K | 233.03 J/K/mol | –
240 K | 219.29 J/K/mol and 234.46 J/K/mol and 239.29 J/K/mol | 229.49 J/K/mol
241.95 K | 220.69 J/K/mol | –
242.11 K | – | 230.23 J/K/mol
242.25 K | 235.6 J/K/mol | –
242.28 K | 240.2 J/K/mol | –
250 K | 226.12 J/K/mol and 242.01 J/K/mol and 247.11 J/K/mol | 236.79 J/K/mol
252.04 K | 227.71 J/K/mol | –
252.26 K | – | 238.21 J/K/mol
252.41 K | 243.81 J/K/mol | –
252.44 K | 248.76 J/K/mol | –
260 K | 233.06 J/K/mol and 249.68 J/K/mol and 255.08 J/K/mol | 244.16 J/K/mol
262.15 K | 234.66 J/K/mol | –
262.32 K | – | 245.55 J/K/mol
262.49 K | 251.06 J/K/mol | –
262.53 K | 256.2 J/K/mol | –
270 K | 240.1 J/K/mol and 257.46 J/K/mol and 263.21 J/K/mol | 251.6 J/K/mol
272.26 K | 239.9 J/K/mol | –
272.38 K | – | 253.18 J/K/mol
272.57 K | 259.14 J/K/mol | –
272.61 K | 264.93 J/K/mol | –
273.15 K | 242.35 J/K/mol and 259.94 J/K/mol and 265.8 J/K/mol | 253.96 J/K/mol
280 K | 247.27 J/K/mol and 265.38 J/K/mol and 271.5 J/K/mol | 259.1 J/K/mol
282.33 K | 249.22 J/K/mol | –
282.34 K | – | 261.68 J/K/mol
282.56 K | 268.2 J/K/mol | –
282.6 K | 274.43 J/K/mol | –
290 K | 254.56 J/K/mol and 273.43 J/K/mol and 279.96 J/K/mol | 266.68 J/K/mol
292.42 K | 254.66 J/K/mol | –
292.48 K | – | 268.78 J/K/mol
292.71 K | 275.78 J/K/mol | –
292.77 K | 282.45 J/K/mol | –
298.15 K | 260.6 J/K/mol and 280.09 J/K/mol and 287 J/K/mol | 272.9 J/K/mol
300 K | 261.99 J/K/mol and 281.62 J/K/mol and 288.61 J/K/mol | 274.31 J/K/mol
302.52 K | 265.92 J/K/mol | –
302.54 K | – | 275.95 J/K/mol
302.81 K | 283.82 J/K/mol | –
302.88 K | 291.43 J/K/mol | –
